Reference: PubChem BioAssay AID1963967 (Molecular Pharmacology Branch, DTP, NCI, 2024)

System: 855422-203-R-J1-PDC spheroids with HUVEC/MSC, viability
Test: Anticancer human tumor 855422-203-R-J1-PDC patient-derived bladder carcinoma cell line growth inhibition [PI3K]
Conditions: for IC50: curve of first compound; for viability, T/C: stronger effect = lower value
Outline: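 Three cell types, namely tumor cells, endothelial cells and mesenchymal stem cells, formed each spheroid. Combinations with four PI3K inhibitors were screened at clinically achievable concentrations decreasing by half-log, and spheroid viability was recorded.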

[1] = second compound 0.0316 µM, first compound 0.0316 µM
[2] = second compound 0.0316 µM, first compound 0.1 µM
[3] = second compound 0.1 µM, first compound 0.0316 µM
[4] = second compound 0.1 µM, first compound 0.1 µM
[5] = second compound 0.316 µM, first compound 0.0316 µM
[6] = second compound 0.316 µM, first compound 0.1 µM
[7] = second compound 1 µM, first compound 0.0316 µM
[8] = second compound 1 µM, first compound 0.1 µM
[9] = second compound 3.16 µM, first compound 0.0316 µM
[10] = second compound 3.16 µM, first compound 0.1 µM
[11] = second compound 10 µM, first compound 0.0316 µM
[12] = second compound 10 µM, first compound 0.1 µM
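Also: agents incubated with spheroids for one week before read-out.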
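For viability, T/C in this document: 100% = DMSO vehicle-treated control wells.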

CC(=O)c1c(C)c2cnc(Nc3ccc(N4CCNCC4)cn3)nc2n(C2CCCC2)c1=O + Cc1nc(NC(=O)N2CCCC2C(N)=O)sc1-c1ccnc(C(C)(C)C(F)(F)F)c1 was tested, and the IC50 (second compound 0.0316 µM) was over 100 nM, the IC50 (second compound 0.1 µM) was over 100 nM and the IC50 (second compound 0.316 µM) was over 100 nM. The IC50 (second compound 1 µM) was 51.7 nM, the IC50 (second compound 3.16 µM) was under 0.316 nM and the IC50 (second compound 10 µM) was under 0.316 nM. The viability, T/C (second compound 0.0316 µM, first compound 0.000316 µM) was 103%, the viability, T/C (second compound 0.0316 µM, first compound 0.001 µM) was 94.1% and the viability, T/C (second compound 0.0316 µM, first compound 0.00316 µM) was 111%. The viability, T/C (second compound 0.0316 µM, first compound 0.01 µM) was 112%, the viability, T/C [1] was 102% and the viability, T/C [2] was 85.3%. The viability, T/C (second compound 0.1 µM, first compound 0.000316 µM) was 106%, the viability, T/C (second compound 0.1 µM, first compound 0.001 µM) was 97.8% and the viability, T/C (second compound 0.1 µM, first compound 0.00316 µM) was 109%. It also gave a viability, T/C (second compound 0.1 µM, first compound 0.01 µM) of 98.3%, a viability, T/C [3] of 96.3% and a viability, T/C [4] of 76.7%. It also gave a viability, T/C (second compound 0.316 µM, first compound 0.000316 µM) of 91.7%, a viability, T/C (second compound 0.316 µM, first compound 0.001 µM) of 92.5% and a viability, T/C (second compound 0.316 µM, first compound 0.00316 µM) of 97.3%. It also gave a viability, T/C (second compound 0.316 µM, first compound 0.01 µM) of 90.7%, a viability, T/C [5] of 90.9% and a viability, T/C [6] of 58%. For the same molecule, the viability, T/C (second compound 1 µM, first compound 0.000316 µM) was 69.4%, the viability, T/C (second compound 1 µM, first compound 0.001 µM) was 78.2% and the viability, T/C (second compound 1 µM, first compound 0.00316 µM) was 72.8%. For the same molecule, the viability, T/C (second compound 1 µM, first compound 0.01 µM) was 75.5%, the viability, T/C [7] was 60.5% and the viability, T/C [8] was 33%. It also gave a viability, T/C (second compound 3.16 µM, first compound 0.000316 µM) of 44.1%, a viability, T/C (second compound 3.16 µM, first compound 0.001 µM) of 46.9% and a viability, T/C (second compound 3.16 µM, first compound 0.00316 µM) of 42.7%. The viability, T/C (second compound 3.16 µM, first compound 0.01 µM) was 41.3%, the viability, T/C [9] was 34.5% and the viability, T/C [10] was 18.2%. For the same molecule, the viability, T/C (second compound 10 µM, first compound 0.000316 µM) was 25.3%, the viability, T/C (second compound 10 µM, first compound 0.001 µM) was 24% and the viability, T/C (second compound 10 µM, first compound 0.00316 µM) was 24.1%. The viability, T/C (second compound 10 µM, first compound 0.01 µM) was 23%, the viability, T/C [11] was 19.3% and the viability, T/C [12] was 10.7%.

CNC(=O)c1ccc(N2C(=S)N(c3ccc(C#N)c(C(F)(F)F)c3)C(=O)C2(C)C)cc1F + Cc1nc(NC(=O)N2CCCC2C(N)=O)sc1-c1ccnc(C(C)(C)C(F)(F)F)c1 was tested, and the IC50 (second compound 0.0316 µM) was over 10000 nM, the IC50 (second compound 0.1 µM) was over 10000 nM and the IC50 (second compound 0.316 µM) was over 10000 nM. It also gave an IC50 (second compound 1 µM) of over 10000 nM, an IC50 (second compound 3.16 µM) of 31.6 nM and an IC50 (second compound 10 µM) of under 31.6 nM. It also gave a viability, T/C [1] of 109%, a viability, T/C [2] of 95.3% and a viability, T/C (second compound 0.0316 µM, first compound 0.316 µM) of 99.1%. The viability, T/C (second compound 0.0316 µM, first compound 1 µM) was 87.4%, the viability, T/C (second compound 0.0316 µM, first compound 3.16 µM) was 80.7% and the viability, T/C (second compound 0.0316 µM, first compound 10 µM) was 74.5%. The viability, T/C [3] was 99.7%, the viability, T/C [4] was 97.8% and the viability, T/C (second compound 0.1 µM, first compound 0.316 µM) was 96.7%. It also gave a viability, T/C (second compound 0.1 µM, first compound 1 µM) of 84.8%, a viability, T/C (second compound 0.1 µM, first compound 3.16 µM) of 88.1% and a viability, T/C (second compound 0.1 µM, first compound 10 µM) of 79%. The viability, T/C [5] was 98.1%, the viability, T/C [6] was 83.3% and the viability, T/C (second compound 0.316 µM, first compound 0.316 µM) was 96.7%. For the same molecule, the viability, T/C (second compound 0.316 µM, first compound 1 µM) was 87.6%, the viability, T/C (second compound 0.316 µM, first compound 3.16 µM) was 86.8% and the viability, T/C (second compound 0.316 µM, first compound 10 µM) was 77.4%. For the same molecule, the viability, T/C [7] was 72.5%, the viability, T/C [8] was 75.7% and the viability, T/C (second compound 1 µM, first compound 0.316 µM) was 73.7%. It also gave a viability, T/C (second compound 1 µM, first compound 1 µM) of 76.8%, a viability, T/C (second compound 1 µM, first compound 3.16 µM) of 82.5% and a viability, T/C (second compound 1 µM, first compound 10 µM) of 61.8%. It also gave a viability, T/C [9] of 47.4%, a viability, T/C [10] of 49.6% and a viability, T/C (second compound 3.16 µM, first compound 0.316 µM) of 44.6%. For the same molecule, the viability, T/C (second compound 3.16 µM, first compound 1 µM) was 51.5%, the viability, T/C (second compound 3.16 µM, first compound 3.16 µM) was 54.1% and the viability, T/C (second compound 3.16 µM, first compound 10 µM) was 36.7%. It also gave a viability, T/C [11] of 24.1%, a viability, T/C [12] of 27.6% and a viability, T/C (second compound 10 µM, first compound 0.316 µM) of 24.7%. For the same molecule, the viability, T/C (second compound 10 µM, first compound 1 µM) was 31.2%, the viability, T/C (second compound 10 µM, first compound 3.16 µM) was 29.4% and the viability, T/C (second compound 10 µM, first compound 10 µM) was 16.8%.

Cn1cnc2c(F)c(Nc3ccc(Br)cc3Cl)c(C(=O)NOCCO)cc21 + Cc1nc(NC(=O)N2CCCC2C(N)=O)sc1-c1ccnc(C(C)(C)C(F)(F)F)c1 showed an IC50 (second compound 0.0316 µM) of 2250 nM, an IC50 (second compound 0.1 µM) of 2580 nM and an IC50 (second compound 0.316 µM) of 1350 nM. It also gave an IC50 (second compound 1 µM) of 111 nM, an IC50 (second compound 3.16 µM) of under 9.49 nM and an IC50 (second compound 10 µM) of under 9.49 nM. The viability, T/C (second compound 0.0316 µM, first compound 0.00949 µM) was 94%, the viability, T/C (second compound 0.0316 µM, first compound 0.03 µM) was 79.5% and the viability, T/C (second compound 0.0316 µM, first compound 0.0949 µM) was 116%. For the same molecule, the viability, T/C (second compound 0.0316 µM, first compound 0.3 µM) was 90.4%, the viability, T/C (second compound 0.0316 µM, first compound 0.949 µM) was 82.1% and the viability, T/C (second compound 0.0316 µM, first compound 3 µM) was 39.2%. For the same molecule, the viability, T/C (second compound 0.1 µM, first compound 0.00949 µM) was 96.6%, the viability, T/C (second compound 0.1 µM, first compound 0.03 µM) was 92.9% and the viability, T/C (second compound 0.1 µM, first compound 0.0949 µM) was 89.8%. For the same molecule, the viability, T/C (second compound 0.1 µM, first compound 0.3 µM) was 82.1%, the viability, T/C (second compound 0.1 µM, first compound 0.949 µM) was 79.4% and the viability, T/C (second compound 0.1 µM, first compound 3 µM) was 45.1%. It also gave a viability, T/C (second compound 0.316 µM, first compound 0.00949 µM) of 85.9%, a viability, T/C (second compound 0.316 µM, first compound 0.03 µM) of 78% and a viability, T/C (second compound 0.316 µM, first compound 0.0949 µM) of 89.9%. It also gave a viability, T/C (second compound 0.316 µM, first compound 0.3 µM) of 75.7%, a viability, T/C (second compound 0.316 µM, first compound 0.949 µM) of 61.6% and a viability, T/C (second compound 0.316 µM, first compound 3 µM) of 25%. The viability, T/C (second compound 1 µM, first compound 0.00949 µM) was 53.1%, the viability, T/C (second compound 1 µM, first compound 0.03 µM) was 59.4% and the viability, T/C (second compound 1 µM, first compound 0.0949 µM) was 45.1%. For the same molecule, the viability, T/C (second compound 1 µM, first compound 0.3 µM) was 44.3%, the viability, T/C (second compound 1 µM, first compound 0.949 µM) was 36.2% and the viability, T/C (second compound 1 µM, first compound 3 µM) was 10.2%. For the same molecule, the viability, T/C (second compound 3.16 µM, first compound 0.00949 µM) was 33.7%, the viability, T/C (second compound 3.16 µM, first compound 0.03 µM) was 32.9% and the viability, T/C (second compound 3.16 µM, first compound 0.0949 µM) was 21.7%. It also gave a viability, T/C (second compound 3.16 µM, first compound 0.3 µM) of 21.2%, a viability, T/C (second compound 3.16 µM, first compound 0.949 µM) of 16% and a viability, T/C (second compound 3.16 µM, first compound 3 µM) of 6%. The viability, T/C (second compound 10 µM, first compound 0.00949 µM) was 22.9%, the viability, T/C (second compound 10 µM, first compound 0.03 µM) was 11.8% and the viability, T/C (second compound 10 µM, first compound 0.0949 µM) was 12.7%. The viability, T/C (second compound 10 µM, first compound 0.3 µM) was 8.91%, the viability, T/C (second compound 10 µM, first compound 0.949 µM) was 5.5% and the viability, T/C (second compound 10 µM, first compound 3 µM) was 1.88%.
